± gives the expanded uncertainty stated by the source.
Experiments:
[1] = mn = molality of the nth substance listed, in mol/kg; settings: 298.15 K, 100 kPa, Liquid; for molar conductivity: Alternating current cell with electrodes; for viscosity: Capillary tube (Ostwald / Ubbelohde) method; for speed of sound: Frequency=1 MHz, Linear variable-path acoustic interferometer; for mass density: Vibrating tube method
[2] = 298.15 K, Liquid

[Na+].[O-][Cl+3]([O-])([O-])[O-] [sodium perchlorate] + CNC=O
[1]
Settings | mass density [kg/m3] | molar conductivity [S·m2/mol] | speed of sound [m/s] | viscosity [mPa·s]
m1 = 0.0001833 | – | 0.00113 ± 0.0002 | – | –
m1 = 0.0002554 | – | 0.00111 ± 0.0002 | – | –
m1 = 0.0003247 | – | 0.00109 ± 0.0002 | – | –
m1 = 0.0003795 | – | 0.00107 ± 0.0002 | – | –
m1 = 0.0004397 | – | 0.00105 ± 0.0002 | – | –
m1 = 0.0005067 | – | 0.00103 ± 0.0002 | – | –
m1 = 0.0005588 | – | 0.00101 ± 0.0002 | – | –
m1 = 0.000621 | – | 0.00099 ± 0.0002 | – | –
m1 = 0.0006765 | – | 0.000978 ± 0.0002 | – | –
m1 = 0.0007431 | – | 0.000963 ± 0.0002 | – | –
m1 = 0.0007846 | – | 0.000956 ± 0.0002 | – | –
m1 = 0.000822 | – | 0.000947 ± 0.0002 | – | –
m1 = 0.0008833 | – | 0.000925 ± 0.0002 | – | –
m1 = 0.0009622 | – | 0.000906 ± 0.0002 | – | –
m1 = 0.0145 | 999.72 ± 1 | – | 1434.9 ± 2.5 | 1.664 ± 0.035
m1 = 0.0298 | 1000.43 ± 1 | – | 1449.6 ± 2.5 | 1.674 ± 0.035
m1 = 0.0448 | 1001.19 ± 1 | – | 1470.8 ± 2.5 | 1.683 ± 0.035
m1 = 0.0599 | 1001.99 ± 1 | – | 1499.1 ± 2.5 | 1.692 ± 0.035
m1 = 0.0751 | 1002.84 ± 1 | – | 1534.9 ± 2.6 | 1.702 ± 0.035
m1 = 0.0902 | 1003.73 ± 1 | – | 1576.7 ± 2.6 | 1.711 ± 0.036

CNC=O [N-methylformamide] + [Li+].[O-][Cl+3]([O-])([O-])[O-]
[1], m2 = 0
Settings | mass density [kg/m3] | speed of sound [m/s] | viscosity [mPa·s]
– | 999.12 ± 1 | 1430.3 ± 2.5 | 1.653 ± 0.034

CNC=O [N-methylformamide] + [K+].[O-][Cl+3]([O-])([O-])[O-]
[1], m2 = 0
Settings | mass density [kg/m3] | speed of sound [m/s] | viscosity [mPa·s]
– | 999.12 ± 1 | 1430.3 ± 2.5 | 1.653 ± 0.034

[Li+].[O-][Cl+3]([O-])([O-])[O-] [lithium perchlorate] + CNC=O
[1]
Settings | mass density [kg/m3] | molar conductivity [S·m2/mol] | speed of sound [m/s] | viscosity [mPa·s]
m1 = 0.0001214 | – | 0.000939 ± 0.0002 | – | –
m1 = 0.0001462 | – | 0.000926 ± 0.0002 | – | –
m1 = 0.0001817 | – | 0.000907 ± 0.0002 | – | –
m1 = 0.0002036 | – | 0.000895 ± 0.0002 | – | –
m1 = 0.0002283 | – | 0.000879 ± 0.0002 | – | –
m1 = 0.0002525 | – | 0.000875 ± 0.0002 | – | –
m1 = 0.0002752 | – | 0.000854 ± 0.0002 | – | –
m1 = 0.0003 | – | 0.000841 ± 0.0002 | – | –
m1 = 0.0003244 | – | 0.000831 ± 0.0002 | – | –
m1 = 0.0003557 | – | 0.000815 ± 0.0002 | – | –
m1 = 0.0003756 | – | 0.000809 ± 0.0002 | – | –
m1 = 0.0004004 | – | 0.000795 ± 0.0002 | – | –
m1 = 0.0004406 | – | 0.000783 ± 0.0002 | – | –
m1 = 0.0004687 | – | 0.000769 ± 0.0002 | – | –
m1 = 0.015 | 999.44 ± 1 | – | 1433.8 ± 2.5 | 1.668 ± 0.035
m1 = 0.0301 | 999.85 ± 1 | – | 1447.3 ± 2.5 | 1.682 ± 0.035
m1 = 0.0452 | 1000.33 ± 1 | – | 1468.1 ± 2.5 | 1.696 ± 0.035
m1 = 0.0603 | 1000.86 ± 1 | – | – | 1.71 ± 0.036
m1 = 0.0604 | – | – | 1494.8 ± 2.5 | –
m1 = 0.0755 | 1001.44 ± 1 | – | 1529.4 ± 2.6 | 1.725 ± 0.036
m1 = 0.0907 | 1002.06 ± 1 | – | 1569.9 ± 2.6 | 1.738 ± 0.036

CNC=O [N-methylformamide] + [Na+].[O-][Cl+3]([O-])([O-])[O-]
[1], m2 = 0
Settings | mass density [kg/m3] | speed of sound [m/s] | viscosity [mPa·s]
– | 999.12 ± 1 | 1430.3 ± 2.5 | 1.653 ± 0.034

CNC=O [N-methylformamide]
Settings | speed of sound [m/s]
[2], 100 kPa, Frequency=1 MHz, Linear variable-path acoustic interferometer | 1430.3 ± 2.5

[2], 101.33 kPa
Settings | mass density [kg/m3] | viscosity [mPa·s]
Capillary tube (Ostwald / Ubbelohde) method | – | 1.653 ± 0.034
Vibrating tube method | 999.12 ± 1 | –

[K+].[O-][Cl+3]([O-])([O-])[O-] [potassium perchlorate] + CNC=O
[1]
Settings | mass density [kg/m3] | molar conductivity [S·m2/mol] | speed of sound [m/s] | viscosity [mPa·s]
m1 = 0.0004439 | – | 0.00119 ± 0.0002 | – | –
m1 = 0.0005285 | – | 0.00117 ± 0.0002 | – | –
m1 = 0.0006265 | – | 0.00115 ± 0.0002 | – | –
m1 = 0.0006838 | – | 0.00113 ± 0.0002 | – | –
m1 = 0.000722 | – | 0.00113 ± 0.0002 | – | –
m1 = 0.0007846 | – | 0.00112 ± 0.0002 | – | –
m1 = 0.0008474 | – | 0.00112 ± 0.0002 | – | –
m1 = 0.0009126 | – | 0.0011 ± 0.0002 | – | –
m1 = 0.0009685 | – | 0.00109 ± 0.0002 | – | –
m1 = 0.001057 | – | 0.00108 ± 0.0002 | – | –
m1 = 0.001149 | – | 0.00106 ± 0.0002 | – | –
m1 = 0.001216 | – | 0.00105 ± 0.0002 | – | –
m1 = 0.00129 | – | 0.00103 ± 0.0002 | – | –
m1 = 0.001359 | – | 0.00103 ± 0.0002 | – | –
m1 = 0.0153 | 1000.04 ± 1 | – | 1435.8 ± 2.5 | 1.66 ± 0.035
m1 = 0.0304 | 1001.02 ± 1 | – | 1449.9 ± 2.5 | 1.665 ± 0.035
m1 = 0.0457 | 1002.07 ± 1 | – | 1471.8 ± 2.5 | 1.669 ± 0.035
m1 = 0.0609 | 1003.15 ± 1 | – | 1499.7 ± 2.5 | 1.674 ± 0.035
m1 = 0.0759 | 1004.25 ± 1 | – | 1533.7 ± 2.6 | 1.677 ± 0.035
m1 = 0.0911 | 1005.39 ± 1 | – | 1577.6 ± 2.6 | 1.681 ± 0.035

From the NIST ThermoML archive (doi:10.1016/j.tca.2015.03.023)
